Values of other authors as cited in patent publication US20230304031A1, “VECTORS AND METHODS FOR IN VIVO TRANSDUCTION” (Abintus Bio, Inc., priority 2020, published 2023).
Counter-ions that a name gives are not always drawn. Like-named read-outs stand apart in the source and are kept apart here.

How the values were obtained:
HSPC [1] = details: cited from earlier work; for HSPC mobilization (in words): as reported in the cited literature; for G-CSF-induced HSPC mobilization with NSAID: blocking of PGE2 production
CD34+ cells / HSPC = details: cited from earlier work; for CD34+ HSPC counts in the blood: 24 hours post-injection; for median yield of CD34+ cells: 5 µg/kg/day after chemotherapy, relapsed Hodgkin's disease; for increase in the harvest of CFU-GM over baseline: 5 µg/kg/day alone for 4 days
[2] = target: phosphodiesterase type 5 (PDE5) (Homo sapiens, UniProt O76074); details: after oral administration; cited from earlier work
VLA-5 = details: after SCF stimulation; cited from earlier work
VLA-4 = details: after SCF stimulation; cited from earlier work
HSPC [3] = details: mice / murine models; cited from earlier work
HSCs = details: cited from earlier work
[4] = 10 breast cancer patients, 0.84 ± 0.1 µg/kg/day

Q: For `CC(=O)N[C@@H](CS)C(=O)O` [NAC, N-acetyl-L-cysteine], which “HSPC mobilization (in words)” value (HSPC [1]) is on record?
A: significantly abrogate UDP-glc-induced HSPC mobilization

Q: With `CC(=O)Oc1ccccc1C(=O)O` [aspirin] as the molecule, how does the “G-CSF-induced HSPC mobilization with NSAID” value (HSPC [1]) read?
A: doubled

Q: For `c1cc(CN2CCCNCCNCCCNCC2)ccc1CN1CCCNCCNCCCNCC1` [AMD3100, reference compound], which “CD34+ HSPC counts in the blood” value (CD34+ cells / HSPC; subcutaneous 240 µg/kg) is on record?
A: approximately 10 cells/µL

Q: And the “peak CD34+ HSPC counts in the blood” value (CD34+ cells / HSPC; subcutaneous 240 µg/kg)?
A: approximately 25 cells/µL

Q: And the “time to peak CD34+ HSPC counts” value (CD34+ cells / HSPC; subcutaneous 240 µg/kg)?
A: 8 to 10 h

Q: And the “CD34+ HSPC counts in the blood” value (CD34+ cells / HSPC; subcutaneous 480 µg/kg)?
A: approximately 20 cells/µL

Q: What about the “peak CD34+ HSPC counts in the blood” value (CD34+ cells / HSPC; subcutaneous 480 µg/kg) of the same molecule?
A: approximately 30 cells/µL

Q: And the “time to peak CD34+ HSPC counts” value (CD34+ cells / HSPC; subcutaneous 480 µg/kg)?
A: 8 to 10 h

Q: What about the “HSPC mobilization (in words)” value (HSPC [1]) of the same molecule?
A: rapidly mobilize HSPCs in various animal models

Q: With `CCCc1nn(C)c2c(=O)[nH]c(-c3cc(S(=O)(=O)N4CCN(C)CC4)ccc3OCC)nc12` [Sildenafil citrate] as the molecule, how does the “time of peak activity” value [2] read?
A: 2 h

Q: Which “G-CSF-induced HSPC mobilization with NSAID” value (HSPC [1]) does the source give for `COc1ccc2c(c1)c(CC(=O)O)c(C)n2C(=O)c1ccc(Cl)cc1` [indomethacin] here?
A: doubled

Q: For `CC(C)Cc1ccc(C(C)C(=O)O)cc1` (centres unmarked) [ibuprofen], which “G-CSF-induced HSPC mobilization with NSAID” value (HSPC [1]) is on record?
A: doubled

Q: With `CCOCc1cc(OC)c(-c2ccc(C[C@H](NC(=O)c3c(F)cccc3F)C(=O)O)cc2)c(OC)c1` [Firategrast] as the molecule, how does the “HSPC mobilization (in words)” value (HSPC [1]) read?
A: disrupt HSPC retention in the postnatal hematopoietic niche

Q: With “Natalizumab: humanized monoclonal anti-VLA-4 antibody [reference compound]” as the molecule, how does the “increase in circulating CD34+ cells” value (CD34+ cells / HSPC; patients receiving infusion therapy for multiple sclerosis) read?
A: approximately 3 fold

Q: With `O=P1(N(CCCl)CCCl)NCCCO1` (centres unmarked) [cyclophosphamide, reference compound] as the molecule, how does the “CD34+ cell yields” value (CD34+ cells / HSPC; doses of 4-7 g/m2) read?
A: ~3.62 × 10^6 cells/kg

Q: What about the “increase in the number of CFU-GM” value (CD34+ cells / HSPC; single dose of 4 g/m^2) of the same molecule?
A: up to 25 fold

Q: For `O=C(O)[C@H](Cc1ccc(OC(=O)N2CCCC2)cc1)NC(=O)[C@@H]1CCCN1S(=O)(=O)c1ccccc1` [BOP, N-(benzenesulfonyl)-L-prolyl-L-O-(1-pyrrolidinylcarbonyl)tyrosine], which “HSPC mobilization (in words)” value (HSPC [1]) is on record?
A: rapidly mobilizes long-term multi-lineage reconstituting HSPC

Q: With `CCCCCCCCc1ccc(CCC(N)(CO)CO)cc1` [FTY720] as the molecule, how does the “HSPC mobilization (in words)” value (HSPC [1]) read?
A: decreases steady-state mobilization of HSPCs

Q: What does the source list for SCF: Stem Cell Factor?
A: increase of VLA-5 expression on CD34+ HSPC (VLA-5): 4- to 10 fold; increase of VLA-4 expression on CD34+ HSPC (VLA-4): approximately 2 fold

Q: With “vedolizumab: humanized monoclonal antibody against the α4β7 integrin” as the molecule, how does the “HSPC mobilization (in words)” value (HSPC [3]) read?
A: Reduction in plasma CXCL12 levels, accompanied by reduced HSPC egress

Q: For `C[C@@H](NCCCc1cccc(C(F)(F)F)c1)c1cccc2ccccc12` [Cinacalcet], which “HSPC adhesion, migration and homing” value (HSPC [1]; pharmacological activation of CaR) is on record?
A: increased adhesion of HSPCs to collagen I and fibronectin

Q: Which “median yield of CD34+ cells” value (CD34+ cells / HSPC) does the source give for “GM-CSF: granulocyte-macrophage colony stimulating factor [reference compound]” here?
A: 5.6 × 10^6 CD34+ cells/kg

Q: And the “increase in the harvest of CFU-GM over baseline” value (CD34+ cells / HSPC)?
A: 33.7 fold

Q: And the “CFU-GM content of mobilized HSPC populations” value (CD34+ cells / HSPC; 250 µg/m2 versus 125 µg/m2)?
A: superior yield

Q: What about the “increased HSPC in the peripheral blood” value (CD34+ cells / HSPC; 4-64 µg/kg/day continuous intravenous infusion up to 7 days, cancer patients) of the same molecule?
A: 4- to 18 fold

B1: G-CSF: hematopoietic growth factor (protein, UniProt P09919 31-207, looked up)
Granulocyte …: TPLGPASSLPQSFLLKCLEQVRKIQGDGAALQEKLVSECATYKLCHPEELVLLGHSLGIPWAPLSSCPSQALQLAGCLSQLHSGLFLYQGLLQALEGISPELGPTLDTLQLDVADFATTIWQQMEELGMAPALQPTQGAMPAFASAFQRRAGGVLVASHLQSFLEVSYRVLRHLAQP
Q: Which “median yield of CD34+ cells” value (CD34+ cells / HSPC) does the source give for B1 here?
A: 7.6 × 10^6 CD34+ cells/kg

Q: And the “increase in the harvest of CFU-GM over baseline” value (CD34+ cells / HSPC)?
A: 35.6 fold

Q: What about the “increase in CD34+ content of peripheral blood over baseline” value (CD34+ cells / HSPC; 5 µg/kg/day) of the same molecule?
A: sevenfold

Q: And the median harvest (CD34+ cells / HSPC; 10 µg/kg/day, 34 patients with Hodgkin's disease or NHL)?
A: 2.8 × 10^6 CD34+ cells/kg

Q: And the “CD34+ HSPC yield” value (CD34+ cells / HSPC; 10 µg/kg/day)?
A: 11.32 × 10^7 /kg cells

Q: What about the “increase in CD34+ content of peripheral blood over baseline” value (CD34+ cells / HSPC; 10 µg/kg/day) of the same molecule?
A: 28 fold

Q: And the mean total harvested (CD34+ cells / HSPC; 12 µg/kg/day for 6 days, 17 patients with non-myeloid malignant disorders)?
A: 33 × 10^4 CFU-GM/kg

Q: What about the “CD34+ HSPC yield” value (CD34+ cells / HSPC; 24 µg/kg/day) of the same molecule?
A: 48.25 × 10^7 /kg cells

Q: And the “mean yield after the first leukapheresis” value (CD34+ cells / HSPC; [4])?
A: 0.77 × 10^6 CD34+ cells/kg

Q: What about the “mean yield after the second leukapheresis” value (CD34+ cells / HSPC; [4]) of the same molecule?
A: 1.42 × 10^6 CD34+ cells/kg

Q: And the “increase in HSPC over baseline” value (CD34+ cells / HSPC; G-CSF 5 µg/kg/day for a further 5 days after 7 days of GM-CSF 5 µg/kg/day)?
A: 80 fold

Q: And the “mobilized PBPC cells expressing CD38” value (CD34+ cells / HSPC; by mobilization regimen)?
A: 88%

Q: What about the mean harvest yield (CD34+ cells / HSPC; healthy subjects, G-CSF 5 plus GM-CSF 5 µg/kg/day versus G-CSF 10 µg/kg/day alone) of the same molecule?
A: 119 × 10^6 CD34+ cells/kg

Q: And the “numbers of HSCs in the bloodstream” value (HSCs; 1 day after 4 consecutive days of injections)?
A: 3,400 HSCs/mouse

Q: What about the “HSC mobilization (comparison in words)” value (HSCs; regimens as worded) of the same molecule?
A: not significantly better than the 2-h Viagra + AMD3100 mobilization protocol
